Assay results taken from ChEMBL document CHEMBL5346907, “Discovery of a novel oral type Ⅰ CDK8 inhibitor against acute myeloid leukemia” (Eur J Med Chem, 2023).

Experiments:
[1] = target: Tyrosine-protein kinase Fes/Fps (Homo sapiens) (UniProt P07332); assay: Inhibition of FES (unknown origin) at 1 uM preincubated for 10 mins followed by substrate addition measured for 60 to 120 mins by HTRF assay relative to control; details: time 70-130 min
A-375 = assay: Antiproliferative activity against human A-375 cells incubated for 48 hrs by CCK8 assay; type: functional
[2] = MRT in Sprague-Dawley rat at 10 mg/kg, po; type: ADME, organism-based; details: in vivo
[3] = target: Cytoplasmic tyrosine-protein kinase BMX (Homo sapiens) (UniProt P51813); assay: Inhibition of BMX (unknown origin) at 1 uM preincubated for 10 mins followed by substrate addition measured for 60 to 120 mins by HTRF assay relative to control; details: time 70-130 min
[4] = target: Non-receptor tyrosine-protein kinase TYK2 (Homo sapiens) (UniProt P29597); assay: Inhibition of TYK2 (unknown origin) at 1 uM preincubated for 10 mins followed by substrate addition measured for 60 to 120 mins by HTRF assay relative to control; details: time 70-130 min
HL-60 [5] = assay: Induction of apoptosis in human HL-60 cells assessed as necrotic cells at 10 uM incubated for 48 hrs by annexin V-FITC/PI staining based flow cytometry (reference value: 0.26 %); type: functional
CDK7/Cyclin H/MNAT1 = CDK7/Cyclin H/MNAT1 (Homo sapiens, UniProt P50613); assay: Inhibition of CDK7/Cyclin H/MAT1 (unknown origin) preincubated for 10 mins followed by substrate addition measured for 60 to 120 mins by HTRF assay; type: protein-complex assay
HL-60 [6] = assay: Induction of apoptosis in human HL-60 cells assessed as viable cells at 5 uM incubated for 48 hrs by annexin V-FITC/PI staining based flow cytometry (reference value: 96.5 %); type: functional; details: read-out: Activity
[7] = Bioavailability in Sprague-Dawley rat at 10 mg/kg, po; type: ADME, organism-based; details: in vivo
[8] = Acute toxicity in C57BL/6 mouse assessed as histopathological change in spleen at 2000 mg/kg, IG measured for 14 days by H&E staining based analysis; type: organism-based; details: in vivo, po, 336 h, time 14 day
[9] = target: Vascular endothelial growth factor receptor 3 (Homo sapiens) (UniProt P35916); assay: Inhibition of FLT4 (unknown origin) at 1 uM preincubated for 10 mins followed by substrate addition measured for 60 to 120 mins by HTRF assay relative to control; details: time 70-130 min
[10] = target: Tyrosine-protein kinase JAK1 (Homo sapiens) (UniProt P23458); assay: Inhibition of JAK1 (unknown origin) at 1 uM preincubated for 10 mins followed by substrate addition measured for 60 to 120 mins by HTRF assay relative to control; details: time 70-130 min
SW480 = assay: Antiproliferative activity against human SW480 cells incubated for 48 hrs by CCK8 assay; type: functional
[11] = target: Ephrin type-B receptor 4 (Homo sapiens) (UniProt P54760); assay: Inhibition of EPHB4 (unknown origin) at 1 uM preincubated for 10 mins followed by substrate addition measured for 60 to 120 mins by HTRF assay relative to control; details: time 70-130 min
[12] = target: Ephrin type-A receptor 8 (Homo sapiens) (UniProt P29322); assay: Inhibition of EPHA8 (unknown origin) at 1 uM preincubated for 10 mins followed by substrate addition measured for 60 to 120 mins by HTRF assay relative to control; details: time 70-130 min
[13] = target: CDK18/Cyclin Y (Homo sapiens) (UniProt Q07002+Q8ND76); assay: Inhibition of CDK18/CyclinY (unknown origin) at 1 uM preincubated for 10 mins followed by substrate addition measured for 60 to 120 mins by HTRF assay relative to control; type: protein-complex assay; details: time 70-130 min
[14] = target: Tyrosine-protein kinase Lyn (Homo sapiens) (UniProt P07948); assay: Inhibition of LYN a (unknown origin) at 1 uM preincubated for 10 mins followed by substrate addition measured for 60 to 120 mins by HTRF assay relative to control; details: time 70-130 min
[15] = target: Discoidin domain-containing receptor 2 (Homo sapiens) (UniProt Q16832); assay: Inhibition of DDR2 (unknown origin) at 1 uM preincubated for 10 mins followed by substrate addition measured for 60 to 120 mins by HTRF assay relative to control; details: time 70-130 min
[16] = target: Protein-tyrosine kinase 6 (Homo sapiens) (UniProt Q13882); assay: Inhibition of BRK (unknown origin) at 1 uM preincubated for 10 mins followed by substrate addition measured for 60 to 120 mins by HTRF assay relative to control; details: time 70-130 min
[17] = target: Protein-tyrosine kinase 2-beta (Homo sapiens) (UniProt Q14289); assay: Inhibition of PYK2 (unknown origin) at 1 uM preincubated for 10 mins followed by substrate addition measured for 60 to 120 mins by HTRF assay relative to control; details: time 70-130 min
[18] = target: Fibroblast growth factor receptor 3 (Homo sapiens) (UniProt P22607); assay: Inhibition of FGFR3 (unknown origin) at 1 uM preincubated for 10 mins followed by substrate addition measured for 60 to 120 mins by HTRF assay relative to control; details: time 70-130 min
HCT-116 = assay: Downregulation of STAT1 S727 expression in IFNgamma-stimulated human HCT-116 cells incubated for 12 hrs followed by IFNgamma stimulation for 3 hrs by Western blot analysis; type: functional, cell-based; details: dose 1-10 µM
[19] = Acute toxicity in C57BL/6 mouse assessed as histopathological change in liver at 2000 mg/kg, IG measured for 14 days by H&E staining based analysis; type: organism-based; details: in vivo, po, 336 h, time 14 day
[20] = target: Hepatocyte growth factor receptor (Homo sapiens) (UniProt P08581); assay: Inhibition of MET (unknown origin) at 1 uM preincubated for 10 mins followed by substrate addition measured for 60 to 120 mins by HTRF assay relative to control; details: time 70-130 min
[21] = target: Ephrin type-B receptor 2 (Homo sapiens) (UniProt P29323); assay: Inhibition of EPHB2 (unknown origin) at 1 uM preincubated for 10 mins followed by substrate addition measured for 60 to 120 mins by HTRF assay relative to control; details: time 70-130 min
[22] = target: CDK9/cyclin T1 (Homo sapiens) (UniProt O60563+P50750); assay: Inhibition of CDK9/Cyclin T1 (unknown origin) at 1 uM preincubated for 10 mins followed by substrate addition measured for 60 to 120 mins by HTRF assay relative to control; type: protein-complex assay; details: time 70-130 min
MDA-MB-231 = assay: Antiproliferative activity against human MDA-MB-231 cells incubated for 48 hrs by CCK8 assay; type: functional
[23] = target: Tyrosine-protein kinase ABL1 (Homo sapiens) (UniProt P00519); assay: Inhibition of ABL1 (unknown origin) at 1 uM preincubated for 10 mins followed by substrate addition measured for 60 to 120 mins by HTRF assay relative to control; details: time 70-130 min
[24] = Half life in Sprague-Dawley rat at 2 mg/kg, iv; type: ADME, organism-based; details: in vivo
[25] = target: Cyclin-dependent kinase 13/Cyclin-K (Homo sapiens) (UniProt Q14004+O75909); assay: Inhibition of CDK13/Cyclin K (unknown origin) at 1 uM preincubated for 10 mins followed by substrate addition measured for 60 to 120 mins by HTRF assay relative to control; type: protein-complex assay; details: time 70-130 min
[26] = target: NT-3 growth factor receptor (Homo sapiens) (UniProt Q16288); assay: Inhibition of TRKC (unknown origin) at 1 uM preincubated for 10 mins followed by substrate addition measured for 60 to 120 mins by HTRF assay relative to control; details: time 70-130 min

Chain of Cytoplasmic tyrosine-protein kinase BMX (Homo sapiens) (P51813 whole entry): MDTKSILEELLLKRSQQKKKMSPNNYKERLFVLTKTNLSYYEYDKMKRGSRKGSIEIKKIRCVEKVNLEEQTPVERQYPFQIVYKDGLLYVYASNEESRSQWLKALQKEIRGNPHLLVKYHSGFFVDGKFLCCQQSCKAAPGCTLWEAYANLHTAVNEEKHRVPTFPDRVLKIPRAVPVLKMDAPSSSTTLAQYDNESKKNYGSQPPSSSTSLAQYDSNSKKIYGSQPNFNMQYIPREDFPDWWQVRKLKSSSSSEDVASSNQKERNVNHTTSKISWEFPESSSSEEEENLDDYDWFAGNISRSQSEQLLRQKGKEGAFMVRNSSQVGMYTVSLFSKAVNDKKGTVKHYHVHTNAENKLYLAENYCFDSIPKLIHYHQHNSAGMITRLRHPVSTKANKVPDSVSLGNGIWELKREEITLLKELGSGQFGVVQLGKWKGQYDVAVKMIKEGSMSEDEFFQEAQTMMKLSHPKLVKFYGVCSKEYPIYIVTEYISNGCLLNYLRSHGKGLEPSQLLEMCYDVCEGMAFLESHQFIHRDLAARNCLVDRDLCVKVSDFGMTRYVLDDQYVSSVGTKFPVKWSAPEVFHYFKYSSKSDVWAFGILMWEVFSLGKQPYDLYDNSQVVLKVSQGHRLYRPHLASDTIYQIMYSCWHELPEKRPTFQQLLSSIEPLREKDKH
Chain of Protein-tyrosine kinase 2-beta (Homo sapiens) (Q14289 whole entry, looked up): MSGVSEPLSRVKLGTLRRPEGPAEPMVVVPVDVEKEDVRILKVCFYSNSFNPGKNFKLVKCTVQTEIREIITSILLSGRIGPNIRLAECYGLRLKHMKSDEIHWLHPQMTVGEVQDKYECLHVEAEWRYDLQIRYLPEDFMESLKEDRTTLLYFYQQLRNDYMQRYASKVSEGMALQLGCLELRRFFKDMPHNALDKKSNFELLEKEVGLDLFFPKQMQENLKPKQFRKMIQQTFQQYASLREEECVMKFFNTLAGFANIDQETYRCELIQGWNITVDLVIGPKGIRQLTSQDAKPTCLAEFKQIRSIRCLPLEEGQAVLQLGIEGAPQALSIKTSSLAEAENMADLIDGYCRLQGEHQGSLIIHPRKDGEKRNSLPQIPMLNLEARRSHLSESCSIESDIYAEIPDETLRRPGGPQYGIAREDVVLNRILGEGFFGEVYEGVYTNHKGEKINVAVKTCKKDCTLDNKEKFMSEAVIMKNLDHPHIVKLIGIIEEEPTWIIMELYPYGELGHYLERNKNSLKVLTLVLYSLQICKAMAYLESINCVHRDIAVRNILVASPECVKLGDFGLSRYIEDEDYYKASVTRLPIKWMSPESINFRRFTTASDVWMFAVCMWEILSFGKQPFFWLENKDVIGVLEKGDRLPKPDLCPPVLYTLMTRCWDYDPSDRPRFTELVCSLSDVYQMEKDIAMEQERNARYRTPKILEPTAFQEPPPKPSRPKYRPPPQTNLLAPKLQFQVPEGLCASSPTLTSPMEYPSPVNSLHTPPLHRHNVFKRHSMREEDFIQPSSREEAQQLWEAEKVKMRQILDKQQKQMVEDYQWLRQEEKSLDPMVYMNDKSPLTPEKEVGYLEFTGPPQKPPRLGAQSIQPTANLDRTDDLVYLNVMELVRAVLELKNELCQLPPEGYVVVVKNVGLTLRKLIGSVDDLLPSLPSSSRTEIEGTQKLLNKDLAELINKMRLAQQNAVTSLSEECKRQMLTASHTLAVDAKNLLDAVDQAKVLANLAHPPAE
Chain of Ephrin type-A receptor 8 (Homo sapiens) (P29322 whole entry): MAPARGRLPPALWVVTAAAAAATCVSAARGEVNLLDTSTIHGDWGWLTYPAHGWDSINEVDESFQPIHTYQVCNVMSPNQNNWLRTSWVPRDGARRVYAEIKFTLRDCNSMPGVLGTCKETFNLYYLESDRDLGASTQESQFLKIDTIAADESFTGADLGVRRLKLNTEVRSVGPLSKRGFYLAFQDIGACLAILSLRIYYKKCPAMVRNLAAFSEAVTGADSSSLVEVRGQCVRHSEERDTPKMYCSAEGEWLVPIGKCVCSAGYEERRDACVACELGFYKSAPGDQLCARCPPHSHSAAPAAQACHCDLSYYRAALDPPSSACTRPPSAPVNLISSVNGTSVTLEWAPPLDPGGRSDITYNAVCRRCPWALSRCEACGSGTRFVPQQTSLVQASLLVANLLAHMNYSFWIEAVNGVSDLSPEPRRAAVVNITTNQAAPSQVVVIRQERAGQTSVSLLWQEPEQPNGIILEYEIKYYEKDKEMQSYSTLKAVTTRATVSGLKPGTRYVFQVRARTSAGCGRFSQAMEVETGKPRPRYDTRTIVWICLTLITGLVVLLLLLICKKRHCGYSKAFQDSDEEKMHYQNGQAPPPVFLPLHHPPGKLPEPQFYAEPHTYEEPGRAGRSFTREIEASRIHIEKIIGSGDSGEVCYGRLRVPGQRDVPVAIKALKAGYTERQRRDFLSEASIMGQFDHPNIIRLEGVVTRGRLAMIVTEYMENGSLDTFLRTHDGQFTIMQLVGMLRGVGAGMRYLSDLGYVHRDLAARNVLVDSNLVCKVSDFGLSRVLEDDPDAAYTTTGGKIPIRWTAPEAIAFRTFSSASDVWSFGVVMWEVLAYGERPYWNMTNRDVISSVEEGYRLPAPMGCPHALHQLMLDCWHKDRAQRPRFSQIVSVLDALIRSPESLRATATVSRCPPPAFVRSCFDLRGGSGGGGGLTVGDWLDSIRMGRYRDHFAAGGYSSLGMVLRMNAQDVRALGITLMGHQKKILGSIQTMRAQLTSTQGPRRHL
Chain of Tyrosine-protein kinase JAK1 (Homo sapiens) (P23458 whole entry): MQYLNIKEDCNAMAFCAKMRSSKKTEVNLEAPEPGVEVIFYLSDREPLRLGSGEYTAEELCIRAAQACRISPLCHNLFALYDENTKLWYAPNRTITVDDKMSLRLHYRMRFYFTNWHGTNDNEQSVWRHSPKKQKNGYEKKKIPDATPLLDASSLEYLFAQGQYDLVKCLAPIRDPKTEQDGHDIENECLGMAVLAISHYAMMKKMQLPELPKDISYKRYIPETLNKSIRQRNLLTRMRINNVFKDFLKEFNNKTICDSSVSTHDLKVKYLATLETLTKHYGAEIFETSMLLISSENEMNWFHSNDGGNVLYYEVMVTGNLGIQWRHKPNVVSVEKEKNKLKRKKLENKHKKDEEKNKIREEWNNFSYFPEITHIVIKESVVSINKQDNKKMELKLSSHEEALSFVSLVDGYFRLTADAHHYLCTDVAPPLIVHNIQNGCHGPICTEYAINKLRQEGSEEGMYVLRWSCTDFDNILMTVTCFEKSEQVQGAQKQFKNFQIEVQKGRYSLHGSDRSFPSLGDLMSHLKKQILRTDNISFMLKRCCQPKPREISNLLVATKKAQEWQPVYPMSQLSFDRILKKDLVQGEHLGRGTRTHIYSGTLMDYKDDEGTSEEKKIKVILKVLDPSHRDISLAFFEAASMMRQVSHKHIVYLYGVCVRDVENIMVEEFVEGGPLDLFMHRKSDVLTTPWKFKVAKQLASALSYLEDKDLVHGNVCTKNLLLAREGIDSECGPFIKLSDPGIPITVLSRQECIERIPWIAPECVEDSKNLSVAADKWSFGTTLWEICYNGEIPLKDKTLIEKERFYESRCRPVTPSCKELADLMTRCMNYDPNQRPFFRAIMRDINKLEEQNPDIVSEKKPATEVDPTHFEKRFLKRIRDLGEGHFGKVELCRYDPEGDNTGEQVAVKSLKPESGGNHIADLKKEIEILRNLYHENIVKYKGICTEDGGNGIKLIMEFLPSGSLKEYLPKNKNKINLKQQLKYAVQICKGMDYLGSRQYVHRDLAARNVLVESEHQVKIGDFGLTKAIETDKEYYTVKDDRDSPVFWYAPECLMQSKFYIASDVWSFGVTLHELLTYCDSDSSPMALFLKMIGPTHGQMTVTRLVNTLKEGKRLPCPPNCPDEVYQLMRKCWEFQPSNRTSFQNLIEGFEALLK
Chain of Protein-tyrosine kinase 6 (Homo sapiens) (Q13882 whole entry, looked up): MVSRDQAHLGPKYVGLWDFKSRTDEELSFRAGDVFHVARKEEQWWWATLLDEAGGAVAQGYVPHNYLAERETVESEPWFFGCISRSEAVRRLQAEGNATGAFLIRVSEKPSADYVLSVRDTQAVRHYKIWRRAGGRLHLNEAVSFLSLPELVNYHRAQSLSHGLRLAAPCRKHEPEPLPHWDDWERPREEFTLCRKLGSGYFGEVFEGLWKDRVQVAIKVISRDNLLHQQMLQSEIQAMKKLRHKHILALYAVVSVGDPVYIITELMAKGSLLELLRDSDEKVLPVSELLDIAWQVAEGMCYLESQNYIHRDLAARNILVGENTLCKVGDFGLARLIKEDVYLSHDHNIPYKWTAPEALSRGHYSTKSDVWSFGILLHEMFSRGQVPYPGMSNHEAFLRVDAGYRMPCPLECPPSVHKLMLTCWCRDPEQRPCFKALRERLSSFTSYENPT
Chain of Tyrosine-protein kinase Lyn (Homo sapiens) (P07948 2-512 limits assumed): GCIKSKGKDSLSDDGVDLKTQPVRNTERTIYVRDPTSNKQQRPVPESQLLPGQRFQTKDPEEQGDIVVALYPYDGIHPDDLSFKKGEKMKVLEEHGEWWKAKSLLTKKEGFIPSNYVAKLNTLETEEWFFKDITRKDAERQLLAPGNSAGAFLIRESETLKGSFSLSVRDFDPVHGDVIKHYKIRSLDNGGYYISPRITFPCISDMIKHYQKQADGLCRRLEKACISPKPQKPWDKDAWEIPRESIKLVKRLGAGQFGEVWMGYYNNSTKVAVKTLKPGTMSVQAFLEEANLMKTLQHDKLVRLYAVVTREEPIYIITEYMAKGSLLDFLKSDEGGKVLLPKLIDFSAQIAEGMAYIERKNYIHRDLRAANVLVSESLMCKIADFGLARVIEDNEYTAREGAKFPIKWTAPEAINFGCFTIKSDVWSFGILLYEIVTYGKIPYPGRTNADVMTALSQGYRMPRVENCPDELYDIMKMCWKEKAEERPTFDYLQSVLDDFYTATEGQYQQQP

With `NC(=O)c1cccc(-c2cnc3[nH]ccc3c2)c1` the inhibition [1] was 26.7%, the GI50 (A-375) was > 50 µM and the MRT [2] was 2.47 h. It also gave an inhibition [3] of 5.13%, an inhibition [4] of 0% and an Activity (HL-60 [5]) of 1.79%. For the same compound, the IC50 (CDK7/Cyclin H/MNAT1) was 0.428 µM, the viability at 5 µM (HL-60 [6]) was 9.73% and the bioavailability [7] was 28%. For the same compound, the Activity [8] was “Non-Toxic”, the inhibition [9] was 10.7% and the inhibition [10] was 31.5%. The GI50 (SW480) was > 50 µM, the inhibition [11] was 0% and the inhibition [12] was 0%. The inhibition [13] was 3.47%, the inhibition [14] was 15.4% and the inhibition [15] was 0%. For the same compound, the inhibition [16] was 12.7%, the inhibition [17] was 3.1% and the inhibition [18] was 10.8%. For the same compound, the Activity (HCT-116) was “Dose-Dependent Effect”, the Activity [19] was “Non-Toxic” and the inhibition [20] was 0%. For the same compound, the inhibition [21] was 0%, the inhibition [22] was 7.41% and the GI50 (MDA-MB-231) was > 50 µM. The inhibition [23] was 0%, the half-life [24] was 0.81 h and the inhibition [25] was 9.63%. For the same compound, the inhibition [26] was 10.8%.
